In US5026836A, “6-sulfenamide, 6-sulfinamide and 6-sulfonamide purines, purine nucleosides, purine nucleotides, pharmaceutical compositions, and processes of making” (priority 1988, dated 1991):
Where two headings read alike, the source gives them in different places.

What was measured:
[1] = Solubility (maximum solubility); assay type: physicochemical
[2] = Toxicity / maximum tolerated dosage in mice; assay type: in vivo; conditions: mouse, in vivo, single QD day 1 ip, L1210-inoculated BDF1 mice, read-out: Max. tolerated dosage
Procedure: In Example N other compounds of the invention were tested against L1210 cells. […] Activity in Table 14-a is tabulated as both increases in life span and as cells surviving treatment and that in table 14-b as T/C.

[3] = tested on: L1210 cells; test: Life span of BDF1 mice inoculated ip with 10^6 L1210 leukemia cells; assay type: in vivo, mouse; conditions: for % ILS: single QD day 1 ip
Procedure: As illustrative examples of use of the compounds of the invention the following examples are given. […] These standard tests utilize protocols developed under the auspices of the Developmental Therapeutics Program, Division of Cancer Treatment, National Cancer Institute, Bethesda, Md., U.S.A. Except as otherwise indicated the tests conform to these protocols and are evaluated utilizing criteria defined by the protocols.
(§1) Values below 25% are considered capable of producing effective therapy, those below 10% are considered good and those below 5% are considered very good. This expresses the percent of the cells which survived treatment based upon the original cells in the inoculum. Those tests expressed as increases in life span (% ILS) indicate the increased life span of the drug treated group compared to a control group.
(§2) As an indicator of reproducible activity, compounds of the invention and other known cancer chemotherapeutic agents were screened against L1210 lymphoid leukemia in vivo utilizing the mouse as a test species. Normal NCI protocols for this test require 10^5 seed cells of the L1210 cell line.
Cytosine Arabinoside must be given every three hours.
Mice were inoculated intraperitoneally on day 0 with a million cells of murine leukemia L1210. Drug was given qd days 1, 4 and 7. Increased life span is the mean increase in the treated group presented as a percentage of the mean life span of control mice.
Mice were inoculated intraperitoneally on day 0 with a million cells of murine leukemia L1210. Drugs were given qd days 1, 3, 5 and 7. Increased life span is presented as a percentage of the mean life span of control mice.

[4] = tested on: L1210 cells; test: L1210 cells surviving treatment (% of original inoculum); assay type: in vivo, mouse; conditions: single QD day 1 ip
Text: as §1
as §2, with “line. However for the purposes of tests with the L1210 cell line in testing the compounds of the invention for antitumor activity, a log greater, i.e. 10^6 cells were utilized.” for “line.”
Tables 2-a and 2-b illustrate a dose response for Compound 19 against L1210 inoculated mice expressed as both increased life span compared to control and as the number of cells of the original inoculum surviving drug treatment. As is evident from the various regimens of drug treatment shown in Tables 2-a and 2-b, effective therapeutic effects are noted and a dose response to Compound 19 is evident. […] Cytosine Arabinoside must be given every three hours. Test results are given utilizing standard protocols based on mean survival time and are expressed as T/C percentages (treated animals/control animals).

Structure (SMILES) | Max. sol. dosage [1] | MTD ([2]; ip) | other results
NS(=O)(=O)c1ncnc2c1ncn2[C@@H]1O[C@H](CO)[C@@H](O)[C@H]1O [Compound 8, 9-β-D-Ribofuranosyl-9H-purine-6-sulfonamide] | 480 mg/kg | 173 mg/kg | 
NS(=O)(=O)c1ncnc2c1ncn2[C@@H]1O[C@H](CO)[C@@H](O)[C@@H]1O [Compound 12, 9-β-D-Arabinofuranosyl-9H-purine-6-sulfonamide] | 173 mg/kg | 173 mg/kg | 
NSc1ncnc2c1ncn2[C@H]1C[C@H](O)[C@@H](CO)O1 [Compound 14, 9-(2-Deoxy-β-D-erythro-pentofuranosyl)-9H-purine-6-sulfenamide] | 800 mg/kg | 288 mg/kg | 
N[S+]([O-])c1ncnc2c1ncn2[C@H]1C[C@H](O)[C@@H](CO)O1 (stereo partly drawn) [Compound 15, 9-(2-Deoxy-β-D-erythro-pentofuranosyl)-9H-ourine-6-sulfinamide] | 800 mg/kg | 104 mg/kg | % ILS [3]: 33%; Cells surviving treatment (% of day 0 innoc.) [4]: 16%
NS(=O)(=O)c1ncnc2c1ncn2[C@H]1C[C@H](O)[C@@H](CO)O1 [Compound 16, 9-(2-Deoxy-β-D-erythro-pentofuranosYl)-9H-purine-6-sulfonamide] | 800 mg/kg | 173 mg/kg | 
NSc1nc(N)nc2c1ncn2[C@H]1C[C@H](O)[C@@H](CO)O1 [Compound 22, 2-Amino-9-(2-deoxy-β-D-erythro-pentofuranosyl)-9H-purine-6-sulfenamide] | 173 mg/kg | 173 mg/kg | 
Nc1nc([S+](N)[O-])c2ncn([C@H]3C[C@H](O)[C@@H](CO)O3)c2n1 (stereo partly drawn) [Compound 23, 2-amino-9-(2-deoxy-β-D-erythro-pentofuranosyl)-9H-purine-6-sulfinamide] | 480 mg/kg | 173 mg/kg | in vivo antitumor activity ([3]; mouse, in vivo): good activity; water solubility [1]: increased water solubility
Nc1nc(S(N)(=O)=O)c2ncn([C@H]3C[C@H](O)[C@@H](CO)O3)c2n1 [Compound 24, 2-Amino-9-(2-deoxy-β-D-erythro-pentofuranosyl)-9H-purine-6-sulfonamide] | 480 mg/kg | 288 mg/kg | 
NSc1nc(N)nc2c1ncn2[C@@H]1O[C@@H]2COP(=O)(O)O[C@H]2[C@H]1O [Compound 29, 2-Amino-9-β-D-ribofuranosylpurine-6-sulfenamide 3',5'-cyclic phosphate] |  |  | % ILS [3]: 59%; Cells surviving treatment (% of day 0 innoc.) [4]: 1.7%; Max. sol. dosage ([1]; in water): 480 mg/kg; MTD [2]: 480 mg/kg
Nc1nc([S+](N)[O-])c2ncn([C@@H]3O[C@@H]4COP(=O)(O)O[C@H]4[C@H]3O)c2n1 (stereo partly drawn) [Compound 30, 2-Amino-9-β-D-ribofuranosylpurine-6-sulfinamide 3',5'-cyclic phosphate] |  |  | % ILS [3]: 59%; Cells surviving treatment (% of day 0 innoc.) [4]: 1.7%; Max. sol. dosage ([1]; in water): 288 mg/kg; MTD [2]: 288 mg/kg
NSc1nc(N)nc2c1ccn2[C@H]1C[C@H](O)[C@@H](CO)O1 [Compound 38, 2-Amino-7-(2-deoxy-β-D-erythro-pentofuranosyl)pyrrolo[2,3-d]pyrimidine-4-sulfenamide] | 173 mg/kg | 173 mg/kg | 
